# Reference: ChEMBL document CHEMBL5465560, “Selectivity Literature for EUbOPEN Chemogenomic Library” (2024)
# Assays:
# [1] = molecular target: Activin receptor type-2B (Homo sapiens) (UniProt Q13705); test: Selectivity interaction (KinomeScan (DiscoverX)) EUB0000655a ACVR2B; conditions: at 10 µM
# [2] = molecular target: Tyrosine-protein kinase Lck (Homo sapiens, UniProt P06239); test: Selectivity interaction (Panel of kinases, GPCRs, ion channels and transporters (enzymatic assay)) EUB0000266bCl LCK
# Chain of Tyrosine-protein kinase Lck (P06239 2-509 limits assumed): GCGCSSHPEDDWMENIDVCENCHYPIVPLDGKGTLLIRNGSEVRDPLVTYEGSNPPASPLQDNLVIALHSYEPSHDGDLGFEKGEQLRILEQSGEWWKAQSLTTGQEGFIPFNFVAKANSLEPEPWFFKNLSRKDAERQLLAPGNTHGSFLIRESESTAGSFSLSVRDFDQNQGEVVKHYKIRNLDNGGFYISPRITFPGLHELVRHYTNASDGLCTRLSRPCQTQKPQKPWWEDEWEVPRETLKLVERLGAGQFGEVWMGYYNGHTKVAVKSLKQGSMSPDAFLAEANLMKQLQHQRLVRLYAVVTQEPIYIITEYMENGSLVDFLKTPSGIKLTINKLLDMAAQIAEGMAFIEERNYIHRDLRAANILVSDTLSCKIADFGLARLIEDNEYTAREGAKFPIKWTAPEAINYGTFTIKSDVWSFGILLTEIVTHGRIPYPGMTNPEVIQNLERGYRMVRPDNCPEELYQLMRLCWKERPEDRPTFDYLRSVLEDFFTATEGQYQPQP
# Activated CDC42 kinase 1 = Activated CDC42 kinase 1 (Homo sapiens, UniProt Q07912); test: Selectivity interaction (Kinase panel (KiNativ target engagement assay in Jurkat cells)) EUB0001635a TNK2; format: cell-based; conditions: Selectivity number of off-targets 0.0, Selectivity number of targets 233.0, Source Knowledge https://www.sciencedirect.com/science/article/pii/S2451945619300674?via%3Dihub, at 1 µM
# [3] = molecular target: Ribosomal protein S6 kinase alpha-1 (Homo sapiens, UniProt Q15418); test: Selectivity interaction (KinomeScan (DiscoverX)) EUB0000666a RPS6KA1; conditions: at 10 µM
# Chain of Ribosomal protein S6 kinase alpha-1 (Q15418 whole entry): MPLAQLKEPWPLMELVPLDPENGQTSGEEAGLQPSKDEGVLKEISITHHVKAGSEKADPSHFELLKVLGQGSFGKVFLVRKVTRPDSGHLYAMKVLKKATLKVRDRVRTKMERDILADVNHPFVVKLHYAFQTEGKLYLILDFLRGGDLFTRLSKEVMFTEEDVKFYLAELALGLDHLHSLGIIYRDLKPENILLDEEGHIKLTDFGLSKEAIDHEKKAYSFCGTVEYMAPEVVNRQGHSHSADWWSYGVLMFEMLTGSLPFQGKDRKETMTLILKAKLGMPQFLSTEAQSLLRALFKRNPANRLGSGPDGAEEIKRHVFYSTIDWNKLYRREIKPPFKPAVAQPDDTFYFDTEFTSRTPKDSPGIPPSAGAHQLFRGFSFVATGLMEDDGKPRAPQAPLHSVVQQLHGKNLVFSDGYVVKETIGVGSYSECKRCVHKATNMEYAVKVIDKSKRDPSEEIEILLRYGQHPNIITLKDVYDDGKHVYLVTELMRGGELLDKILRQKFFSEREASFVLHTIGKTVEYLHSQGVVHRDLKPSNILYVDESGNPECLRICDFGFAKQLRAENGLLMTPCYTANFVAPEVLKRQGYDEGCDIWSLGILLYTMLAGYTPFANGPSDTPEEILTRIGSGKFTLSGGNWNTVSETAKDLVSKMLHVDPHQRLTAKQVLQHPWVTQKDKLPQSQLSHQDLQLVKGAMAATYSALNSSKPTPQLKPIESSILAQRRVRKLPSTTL
# Focal adhesion kinase 1 = Focal adhesion kinase 1 (Homo sapiens, UniProt Q05397); conditions: at 10 µM
# [4] = molecular target: Mitogen-activated protein kinase kinase kinase 20 (Homo sapiens) (UniProt Q9NYL2); conditions: at 10 µM
# Chain of Mitogen-activated protein kinase kinase kinase 20 (Homo sapiens) (Q9NYL2 2-800 limits assumed): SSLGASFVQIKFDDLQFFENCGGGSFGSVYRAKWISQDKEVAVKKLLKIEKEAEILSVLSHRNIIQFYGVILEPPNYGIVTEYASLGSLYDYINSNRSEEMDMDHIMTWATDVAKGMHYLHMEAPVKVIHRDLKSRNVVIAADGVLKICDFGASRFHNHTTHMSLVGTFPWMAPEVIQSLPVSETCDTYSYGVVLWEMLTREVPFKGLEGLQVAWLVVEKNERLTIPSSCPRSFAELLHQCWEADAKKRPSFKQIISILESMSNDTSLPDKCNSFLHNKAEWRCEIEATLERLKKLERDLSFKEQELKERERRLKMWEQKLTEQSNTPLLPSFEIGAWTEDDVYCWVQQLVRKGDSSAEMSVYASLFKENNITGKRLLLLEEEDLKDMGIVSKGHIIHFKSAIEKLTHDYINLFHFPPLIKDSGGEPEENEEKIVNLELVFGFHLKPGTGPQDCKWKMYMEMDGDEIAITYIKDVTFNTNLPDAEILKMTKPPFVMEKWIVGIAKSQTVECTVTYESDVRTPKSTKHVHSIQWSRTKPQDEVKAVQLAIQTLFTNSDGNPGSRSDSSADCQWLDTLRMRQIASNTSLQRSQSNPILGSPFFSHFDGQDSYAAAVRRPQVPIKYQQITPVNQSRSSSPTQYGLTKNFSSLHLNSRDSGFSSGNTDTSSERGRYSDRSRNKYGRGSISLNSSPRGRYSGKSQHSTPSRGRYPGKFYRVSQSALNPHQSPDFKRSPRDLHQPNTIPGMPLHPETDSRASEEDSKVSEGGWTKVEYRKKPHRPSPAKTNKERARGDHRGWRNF
# [5] = molecular target: T1, Mitogen-activated protein kinase kinase kinase kinase 3 (Homo sapiens) (UniProt Q8IVH8); conditions: at 10 µM
# T1 sequence (whole entry): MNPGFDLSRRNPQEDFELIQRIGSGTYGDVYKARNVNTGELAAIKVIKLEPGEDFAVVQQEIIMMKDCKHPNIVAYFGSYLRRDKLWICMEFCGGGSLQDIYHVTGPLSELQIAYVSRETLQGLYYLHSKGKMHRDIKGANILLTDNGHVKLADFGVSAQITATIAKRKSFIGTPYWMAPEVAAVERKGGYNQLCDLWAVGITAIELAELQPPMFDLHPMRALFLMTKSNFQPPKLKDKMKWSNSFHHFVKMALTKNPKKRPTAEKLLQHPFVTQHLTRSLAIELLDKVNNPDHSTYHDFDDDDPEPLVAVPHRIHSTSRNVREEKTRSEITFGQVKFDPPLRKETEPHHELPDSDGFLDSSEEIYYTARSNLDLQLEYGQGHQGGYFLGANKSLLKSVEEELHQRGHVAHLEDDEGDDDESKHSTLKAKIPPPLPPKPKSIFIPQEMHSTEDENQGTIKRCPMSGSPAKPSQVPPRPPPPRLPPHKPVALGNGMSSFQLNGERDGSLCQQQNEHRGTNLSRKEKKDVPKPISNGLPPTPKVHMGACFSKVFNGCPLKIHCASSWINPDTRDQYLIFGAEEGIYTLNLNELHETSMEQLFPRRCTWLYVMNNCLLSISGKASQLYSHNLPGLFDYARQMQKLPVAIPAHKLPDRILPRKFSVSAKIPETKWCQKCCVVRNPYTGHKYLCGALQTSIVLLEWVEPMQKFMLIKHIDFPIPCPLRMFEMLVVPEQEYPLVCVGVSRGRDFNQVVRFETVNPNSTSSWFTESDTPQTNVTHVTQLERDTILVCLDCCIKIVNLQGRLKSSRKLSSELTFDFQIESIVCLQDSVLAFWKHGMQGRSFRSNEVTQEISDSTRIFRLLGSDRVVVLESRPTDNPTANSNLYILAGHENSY
# [6] = molecular target: Calcium/calmodulin-dependent protein kinase type II subunit delta (Homo sapiens) (UniProt Q13557); test: Selectivity interaction (ActivX KiNativ screen (kinase selectivity in THP-1 cell lysates)) EUB0000639a CAMK2D; format: subcellular; conditions: lysate, at 0.01 µM
# [7] = molecular target: Receptor tyrosine-protein kinase erbB-4 (Homo sapiens, UniProt Q15303); test: Selectivity interaction (Kinase panel (Invitrogen)) EUB0000639a ERBB4; conditions: at 200 nM
# [8] = molecular target: Serine/threonine-protein kinase WNK1 (Homo sapiens) (UniProt Q9H4A3); test: Selectivity interaction (ActivX KiNativ screen (kinase selectivity in THP-1 cell lysates)) EUB0000639a WNK1; format: subcellular; conditions: lysate, at 0.01 µM
# Chain of Serine/threonine-protein kinase WNK1 (Homo sapiens) (Q9H4A3 whole entry, looked up): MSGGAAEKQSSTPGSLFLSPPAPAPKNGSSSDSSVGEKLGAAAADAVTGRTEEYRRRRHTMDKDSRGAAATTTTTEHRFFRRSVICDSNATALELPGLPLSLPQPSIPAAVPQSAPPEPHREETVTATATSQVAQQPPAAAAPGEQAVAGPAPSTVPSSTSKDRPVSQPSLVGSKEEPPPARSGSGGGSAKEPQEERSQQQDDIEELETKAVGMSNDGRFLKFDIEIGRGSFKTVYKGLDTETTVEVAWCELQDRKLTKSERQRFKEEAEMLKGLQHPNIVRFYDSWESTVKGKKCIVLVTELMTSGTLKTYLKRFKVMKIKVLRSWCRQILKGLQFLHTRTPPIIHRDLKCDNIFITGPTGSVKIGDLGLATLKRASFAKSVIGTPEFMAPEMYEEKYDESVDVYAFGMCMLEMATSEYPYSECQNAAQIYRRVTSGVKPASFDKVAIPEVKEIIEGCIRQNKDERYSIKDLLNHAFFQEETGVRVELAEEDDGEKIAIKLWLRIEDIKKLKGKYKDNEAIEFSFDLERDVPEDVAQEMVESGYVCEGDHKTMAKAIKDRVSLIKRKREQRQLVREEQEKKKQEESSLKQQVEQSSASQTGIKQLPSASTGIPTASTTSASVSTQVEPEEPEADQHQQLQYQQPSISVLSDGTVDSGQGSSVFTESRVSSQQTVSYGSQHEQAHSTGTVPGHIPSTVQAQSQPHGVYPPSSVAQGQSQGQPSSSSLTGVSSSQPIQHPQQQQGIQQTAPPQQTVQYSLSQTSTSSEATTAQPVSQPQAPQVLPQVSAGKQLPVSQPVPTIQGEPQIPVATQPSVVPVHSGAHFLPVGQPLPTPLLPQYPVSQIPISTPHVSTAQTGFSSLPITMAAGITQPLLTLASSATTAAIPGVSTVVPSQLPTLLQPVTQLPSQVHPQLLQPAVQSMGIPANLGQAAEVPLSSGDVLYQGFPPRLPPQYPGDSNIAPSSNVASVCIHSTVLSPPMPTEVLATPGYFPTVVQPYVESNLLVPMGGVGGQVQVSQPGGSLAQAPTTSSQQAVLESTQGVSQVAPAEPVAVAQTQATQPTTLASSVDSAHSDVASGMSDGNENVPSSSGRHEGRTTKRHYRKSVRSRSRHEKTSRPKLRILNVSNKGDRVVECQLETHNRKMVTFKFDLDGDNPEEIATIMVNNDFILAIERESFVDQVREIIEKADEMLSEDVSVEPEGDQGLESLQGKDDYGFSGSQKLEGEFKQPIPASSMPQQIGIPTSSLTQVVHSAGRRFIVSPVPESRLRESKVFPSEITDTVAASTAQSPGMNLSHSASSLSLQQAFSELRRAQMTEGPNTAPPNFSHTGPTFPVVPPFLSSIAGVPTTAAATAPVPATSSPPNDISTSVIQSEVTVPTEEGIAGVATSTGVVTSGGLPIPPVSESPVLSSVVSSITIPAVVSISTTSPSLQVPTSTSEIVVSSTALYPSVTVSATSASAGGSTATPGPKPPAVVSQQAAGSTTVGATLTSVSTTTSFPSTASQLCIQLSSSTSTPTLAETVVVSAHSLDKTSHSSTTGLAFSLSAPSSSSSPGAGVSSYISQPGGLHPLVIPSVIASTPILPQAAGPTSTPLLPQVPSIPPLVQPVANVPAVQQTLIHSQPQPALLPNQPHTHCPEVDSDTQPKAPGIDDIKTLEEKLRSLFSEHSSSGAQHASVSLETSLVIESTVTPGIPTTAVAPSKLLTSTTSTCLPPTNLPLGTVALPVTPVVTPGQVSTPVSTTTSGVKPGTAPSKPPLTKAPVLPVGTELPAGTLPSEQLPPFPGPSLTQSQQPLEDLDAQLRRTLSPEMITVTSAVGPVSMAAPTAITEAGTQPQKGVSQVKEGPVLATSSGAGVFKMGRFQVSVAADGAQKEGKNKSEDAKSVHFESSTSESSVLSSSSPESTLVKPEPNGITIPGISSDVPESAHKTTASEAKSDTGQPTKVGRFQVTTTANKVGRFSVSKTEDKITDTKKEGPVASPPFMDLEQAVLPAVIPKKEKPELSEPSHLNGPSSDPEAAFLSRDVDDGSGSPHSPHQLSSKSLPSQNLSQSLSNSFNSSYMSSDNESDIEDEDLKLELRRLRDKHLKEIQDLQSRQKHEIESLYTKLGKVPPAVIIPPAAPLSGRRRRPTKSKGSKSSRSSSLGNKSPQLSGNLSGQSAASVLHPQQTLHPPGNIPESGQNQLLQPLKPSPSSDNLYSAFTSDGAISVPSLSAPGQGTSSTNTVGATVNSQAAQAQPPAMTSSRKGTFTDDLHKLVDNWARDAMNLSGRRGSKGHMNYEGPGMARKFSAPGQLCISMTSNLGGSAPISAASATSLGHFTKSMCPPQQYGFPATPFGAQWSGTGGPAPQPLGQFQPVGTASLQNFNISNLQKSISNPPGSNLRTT
# [9] = tested on: Epidermal growth factor receptor (Homo sapiens), P00533 [UNDEFINED MUTATION]; test: Selectivity interaction (KinomeScan (DiscoverX)) EUB0000045b EGFR; conditions: at 10 µM
# [10] = molecular target: T2, Phosphorylase b kinase gamma catalytic chain, liver/testis isoform (Homo sapiens) (UniProt P15735); test: Selectivity interaction (KinomeScan (DiscoverX)) EUB0000045b PHKG2
# T2 sequence (whole entry): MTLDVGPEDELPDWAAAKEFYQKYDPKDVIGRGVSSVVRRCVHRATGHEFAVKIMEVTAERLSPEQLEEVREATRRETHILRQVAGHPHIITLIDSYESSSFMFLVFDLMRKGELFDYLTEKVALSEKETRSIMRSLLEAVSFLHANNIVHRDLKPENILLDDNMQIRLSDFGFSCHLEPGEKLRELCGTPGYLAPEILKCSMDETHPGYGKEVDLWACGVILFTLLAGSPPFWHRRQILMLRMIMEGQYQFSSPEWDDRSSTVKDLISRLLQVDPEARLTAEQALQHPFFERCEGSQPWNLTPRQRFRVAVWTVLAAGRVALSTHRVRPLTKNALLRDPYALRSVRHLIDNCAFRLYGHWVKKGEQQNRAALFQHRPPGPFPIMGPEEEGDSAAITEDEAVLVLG
# [11] = molecular target: T3, Interleukin-1 receptor-associated kinase 4 (Homo sapiens) (UniProt Q9NWZ3); test: Selectivity interaction (Kinase panel (literature)) EUB0001199aCl IRAK4; conditions: at 1 µM
# T3 sequence (whole entry): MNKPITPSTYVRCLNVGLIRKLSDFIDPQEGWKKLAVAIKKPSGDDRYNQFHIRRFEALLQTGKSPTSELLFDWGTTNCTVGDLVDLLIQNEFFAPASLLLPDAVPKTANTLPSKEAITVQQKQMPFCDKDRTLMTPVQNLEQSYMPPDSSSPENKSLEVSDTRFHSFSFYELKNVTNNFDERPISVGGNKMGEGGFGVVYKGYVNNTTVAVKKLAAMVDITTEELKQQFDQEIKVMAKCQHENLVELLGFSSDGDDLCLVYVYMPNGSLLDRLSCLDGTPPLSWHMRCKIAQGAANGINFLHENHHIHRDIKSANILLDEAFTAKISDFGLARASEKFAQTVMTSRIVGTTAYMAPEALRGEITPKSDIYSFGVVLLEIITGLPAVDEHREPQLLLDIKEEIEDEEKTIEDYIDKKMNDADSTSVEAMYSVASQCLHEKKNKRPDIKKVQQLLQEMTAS
# [12] = molecular target: Platelet-derived growth factor receptor beta (Homo sapiens, UniProt P09619); test: Selectivity interaction (KinomeScan (DiscoverX)) EUB0001619a PDGFRB; conditions: at 1 µM
# Chain of Activin receptor type-2B (Homo sapiens) (Q13705 whole entry): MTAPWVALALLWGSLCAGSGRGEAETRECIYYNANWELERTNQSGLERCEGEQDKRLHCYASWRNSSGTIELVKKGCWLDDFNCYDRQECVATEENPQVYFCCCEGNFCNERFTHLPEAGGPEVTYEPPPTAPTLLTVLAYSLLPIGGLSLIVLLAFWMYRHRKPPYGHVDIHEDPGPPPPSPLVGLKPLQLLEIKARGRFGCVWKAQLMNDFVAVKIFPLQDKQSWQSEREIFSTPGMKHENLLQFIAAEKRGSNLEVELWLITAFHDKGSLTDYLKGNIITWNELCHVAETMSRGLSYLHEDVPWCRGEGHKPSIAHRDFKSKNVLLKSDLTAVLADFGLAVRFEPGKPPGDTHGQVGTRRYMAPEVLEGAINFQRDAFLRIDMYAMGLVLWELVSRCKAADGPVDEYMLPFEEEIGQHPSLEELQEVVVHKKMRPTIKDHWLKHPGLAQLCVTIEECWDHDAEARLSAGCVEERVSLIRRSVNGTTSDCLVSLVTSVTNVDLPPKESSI
smiles,measurement,setting,value
CN(C)CCOc1ccc(-c2nc(-c3ccncc3)c(-c3ccc4c(c3)CC/C4=N\O)[nH]2)cc1,% of control,[1],98%
CCn1c(-c2nc3cc(C(=O)N4CCCC(N)C4)ccc3n2C)cc2ccccc21 (stereo not given),pXC50,[2],< 4.5 M
C=CC(=O)Nc1ccc(C(=O)Nc2[nH]nc3c2CN(C(=O)N[C@H](CN(C)C)c2ccccc2)C3(C)C)cc1,% of engagement,Activated CDC42 kinase 1,-3.6%
O=C(NOC[C@H](O)CO)c1ccc(F)c(F)c1Nc1ccc(I)cc1F,% of control,[3],84%
Cc1cc([C@@H](C)Nc2ccccc2C(=O)O)c2nc(N3CCOCC3)cc(=O)n2c1 [AZD-6482],% of control,Focal adhesion kinase 1,88%
same,% of control,[4],100%
same,% of control,[5],88%
CC[C@@H]1[C@H](F)C(=O)N[C@@H]1COc1nccc2cc(C(N)=O)c(OC)cc12 [ZIMLOVISERTIB],% of inhibition,[6],3.3%
same,% of inhibition,[7],8.76%
same,% of inhibition,[8],3.3%
C=CC(=O)Nc1cc(-n2c(=O)ccc3cnc4ccc(-c5ccc(NS(C)(=O)=O)cc5)cc4c32)ccc1C,% of control,[9],62%
same,% of control,[10]; at 1 µM,74%
same,% of control,[10]; at 10 µM,88%
CN1Cc2nccc(-c3cn(C)nc3-c3ccc(F)cc3)c2C1=O,% of inhibition,[11],-8%
N#Cc1cccc(-c2c[nH]c3ncnc(N4CCOCC4)c23)c1,% of control,[12],90%
